From DBAASP come the findings set out here.

In brackets after ≈: the same amount, converted by molar mass. Some results are limits rather than exact numbers.

What all share (test): ≥ marks a high value that may be exact or a test limit, other limits are often not marked, values filed in µg/mL are converted to µM
Experiment [1] concerns Bacillus subtilis.
Experiment [2] deals with Candida albicans.
Experiment [3] has as its system Escherichia coli.
The subject of experiment [4] is Staphylococcus aureus.
Experiment [5] concerns Pseudomonas aeruginosa ATCC 9027.
Experiment [6] deals with Staphylococcus aureus ATCC 6538.
For experiment [7], the system named is Bacillus cereus.
Experiment [8] concerns Acinetobacter baumannii ATCC 19606.
The subject of experiment [9] is Escherichia coli ATCC 25922.
Experiment [10] has as its system Pseudomonas aeruginosa ATCC 27853.
For experiment [11], the system named is Staphylococcus aureus ATCC 25923.
Experiment [12] has as its system Bacillus subtilis ATCC 6633.

Regarding `CC[C@H](C)[C@H](NC(=O)[C@H](CCCN=C(N)N)NC(=O)[C@@H](NC(=O)[C@@H]1CCCN1C(=O)[C@H](CCCN=C(N)N)NC(=O)[C@@H](NC(=O)[C@@H]1CCCN1C(=O)[C@H](CC(C)C)NC(=O)[C@H](CC(C)C)NC(=O)CNC(=O)[C@H](Cc1cnc[nH]1)NC(=O)[C@@H]1CCCN1C(=O)CNC(=O)[C@H](Cc1ccccc1)NC(=O)[C@H](CC(=O)O)NC(=O)[C@H](Cc1c[nH]c2ccccc12)NC(=O)[C@H](C)NC(=O)[C@@H](NC(=O)[C@H](C)N)[C@@H](C)O)[C@@H](C)CC)[C@@H](C)CC)C(=O)N[C@@H](CCCN=C(N)N)C(=O)N1CCC[C@H]1C(=O)N[C@@H](CC(C)C)C(=O)N[C@@H](CS)C(=O)NCC(=O)N[C@@H](CCCCN)C(=O)N[C@@H](CC(=O)O)C(=O)N[C@@H](CCCCN)C(=O)N[C@@H](CO)C(=O)O` [ATAWDFGPHGLLPIRPIRIRPLCGKDKS], the MIC was found to be 24.1 µM (≈ 75 µg/mL) in experiment [1], 6.02 µM (≈ 18.8 µg/mL) in experiment [2], 3.01 µM (≈ 9.37 µg/mL) in experiment [3] and 1.5 µM (≈ 4.68 µg/mL) in experiment [4].

Regarding `CC(C)C[C@H](NC(=O)[C@H](CCCCN)NC(=O)[C@H](CCCCN)NC(=O)[C@H](C)NC(=O)[C@H](CC(C)C)NC(=O)[C@H](CCCCN)NC(=O)[C@H](C)NC(=O)[C@H](Cc1c[nH]c2ccccc12)NC(=O)[C@H](CC(C)C)NC(=O)[C@H](CCCCN)NC(=O)[C@H](C)NC(=O)[C@@H](N)Cc1ccccc1)C(N)=O` [FAKLWAKLAKKL], the MIC in experiment [5] was found to be 35.3 µM (≈ 50 µg/mL); in experiment [6], 70.6 µM (≈ 99.9 µg/mL).

For the compound `CC(C)C[C@H](NC(=O)[C@@H](N)Cc1ccccc1)C(=O)NCC(=O)NCC(=O)N[C@H](C(=O)N[C@@H](Cc1ccccc1)C(=O)N[C@@H](CCCCN)C(=O)NCC(=O)N[C@@H](C)C(=O)N[C@@H](CO)C(=O)N[C@@H](CCCCN)C(=O)N[C@H](C(=O)N[C@@H](Cc1ccccc1)C(=O)N1CCC[C@H]1C(=O)N[C@@H](C)C(=O)N[C@H](C(=O)N[C@@H](Cc1ccccc1)C(=O)NCC(=O)N[C@@H](CCCCN)C(=O)N[C@H](C(=O)O)C(C)C)C(C)C)C(C)C)C(C)C` [FLGGVFKGASKVFPAVFGKV], the MIC is at least 125 µM in experiment [7], above 125 µM in experiment [3] and above 125 µM in [4].

For `CC(C)C[C@H](NC(=O)[C@@H](N)Cc1ccccc1)C(=O)NCC(=O)N[C@@H](CCCCN)C(=O)N[C@H](C(=O)N[C@@H](Cc1ccccc1)C(=O)N[C@@H](CCCCN)C(=O)NCC(=O)N[C@@H](C)C(=O)N[C@H](C(=O)N[C@@H](CCCCN)C(=O)N[C@H](C(=O)N[C@@H](Cc1ccccc1)C(=O)N1CCC[C@H]1C(=O)N[C@@H](C)C(=O)N[C@H](C(=O)N[C@@H](Cc1ccccc1)C(=O)NCC(=O)N[C@@H](CCCCN)C(=O)N[C@H](C(=O)O)C(C)C)C(C)C)C(C)C)C(C)C)C(C)C` [FLGKVFKGAVKVFPAVFGKV], the MIC was at least 59.9 µM in [7], 59.9 µM (≈ 128 µg/mL) in [3] and above 59.9 µM in experiment [4].

Regarding `CC(C)C[C@H](NC(=O)[C@H](CC(C)C)NC(=O)[C@H](CCCCN)NC(=O)[C@H](CCCCN)NC(=O)[C@H](CC(C)C)NC(=O)[C@H](CC(=O)O)NC(=O)[C@H](CCCCN)NC(=O)[C@H](CC(C)C)NC(=O)[C@@H](N)Cc1ccccc1)C(N)=O` [FLKDLKKLL], the MIC is above 115 µM in experiment [8], above 115 µM in [9], 14.3 µM (≈ 16 µg/mL) in experiment [10] and above 115 µM in experiment [11].

In the case of `CC(C)C[C@H](NC(=O)CN)C(=O)N[C@@H](Cc1ccccc1)C(=O)NCC(=O)N[C@@H](CCCCN)C(=O)N[C@@H](CO)C(=O)N[C@@H](CO)C(=O)N[C@H](C(=O)N[C@@H](Cc1c[nH]c2ccccc12)C(=O)NCC(=O)N[C@@H](CCCN=C(N)N)C(=O)N[C@@H](CCCCN)C(=O)N[C@@H](Cc1ccc(O)cc1)C(=O)N[C@@H](Cc1ccc(O)cc1)C(=O)N[C@H](C(=O)N[C@@H](CC(=O)O)C(=O)N[C@@H](CC(C)C)C(=O)N[C@@H](C)C(=O)NCC(=O)N[C@@H](CS)C(=O)N[C@@H](C)C(=O)N[C@@H](CCCCN)C(=O)N[C@@H](C)C(=O)O)C(C)C)C(C)C` [GLFGKSSVWGRKYYVDLAGCAKA], the MIC in experiment [1] was determined as 2.54 µM (≈ 6.3 µg/mL); in experiment [2], 1.27 µM (≈ 3.15 µg/mL); in [3], 5.09 µM (≈ 12.6 µg/mL); in experiment [4], 2.54 µM (≈ 6.3 µg/mL).

Regarding `CC[C@H](C)[C@H](N)C(=O)N[C@@H](C)C(=O)N[C@@H](CO)C(=O)N[C@@H](C)C(=O)N[C@H](C(=O)N1CCC[C@H]1C(=O)N[C@H](C(=O)N[C@@H](CS)C(=O)N[C@H](C(=O)N[C@@H](CCCCN)C(=O)NCC(=O)N[C@@H](CCCCN)C(=O)N[C@H](C(=O)N[C@@H](CO)C(=O)N[C@@H](CCCCN)C(=O)N[C@@H](CO)C(=O)N[C@@H](Cc1ccc(O)cc1)C(=O)N[C@H](C(=O)N[C@@H](CO)C(=O)N[C@H](C(=O)O)C(C)C)[C@@H](C)CC)[C@@H](C)CC)C(C)C)C(C)C)C(C)C` [IASAVPVCVKGKISKSYISV], the figures for the MIC in experiment [7] and in experiment [3] were at least 125 µM and above 125 µM, respectively.

Turning to `CC(C)C[C@H](NC(=O)CNC(=O)[C@H](C)NC(=O)[C@@H](NC(=O)[C@H](CC(N)=O)NC(=O)[C@H](CO)NC(=O)[C@H](CC(C)C)NC(=O)[C@@H](N)CC(C)C)C(C)C)C(=O)N[C@@H](CC(C)C)C(=O)N[C@@H](CCCCN)C(=O)N[C@@H](CCC(N)=O)C(=O)N[C@@H](Cc1ccccc1)C(=O)N[C@@H](C)C(=O)N[C@@H](CCCCN)C(=O)O` [LLSNVAGLLKQFAK], the MIC in experiment [12] was at least 85.2 µM; in experiment [9], 5.33 µM (≈ 8 µg/mL); in [10], 42.6 µM (≈ 64 µg/mL); in experiment [11], 85.2 µM (≈ 128 µg/mL).

For the compound `CC(C)C[C@H](NC(=O)[C@H](CO)NC(=O)[C@@H]1CCCN1)C(=O)N[C@@H](CC(C)C)C(=O)N[C@@H](Cc1ccc(O)cc1)C(=O)N[C@@H](CCCCN)C(=O)N[C@@H](C)C(=O)N[C@@H](CCCCN)C(=O)N[C@@H](C)C(=O)N[C@H](C(=O)N[C@@H](Cc1ccccc1)C(=O)N[C@@H](CS)C(=O)N[C@@H](CCCCN)C(=O)N1CCC[C@H]1C(=O)N[C@@H](CO)C(=O)N[C@@H](C)C(=O)N[C@H](C(=O)N[C@@H](C)C(=O)N[C@H](C(=O)N[C@@H](Cc1ccccc1)C(=O)O)C(C)C)C(C)C)C(C)C` [PSLLYKAKAVFCKPSAVAVF], the MIC was at least 59.8 µM in [7] and above 59.8 µM in experiment [3].

With `CC(C)C[C@H](NC(=O)[C@H](CCC(=O)O)NC(=O)[C@H](Cc1ccccc1)NC(=O)[C@H](CCC(=O)O)NC(=O)[C@H](C)NC(=O)[C@H](CCC(=O)O)NC(=O)[C@H](Cc1ccccc1)NC(=O)[C@H](CC(=O)O)NC(=O)[C@@H](NC(=O)[C@H](CC(=O)O)NC(=O)[C@H](CO)NC(=O)[C@H](CCCCN)NC(=O)[C@H](CCCN=C(N)N)NC(=O)[C@H](CCCCN)NC(=O)[C@@H](N)CCCN=C(N)N)C(C)C)C(=O)N[C@@H](Cc1ccccc1)C(=O)N[C@@H](CCC(=O)O)C(=O)N[C@@H](CC(=O)O)C(=O)N[C@@H](CC(=O)O)C(=O)N[C@@H](CC(=O)O)C(=O)O` [RKRKSDVDFEAEFELFEDDD], the MIC in experiment [7] is at least 103 µM; in [3], above 103 µM.

Regarding `CC[C@H](C)[C@H](NC(=O)[C@H](CCCCN)NC(=O)[C@H](CS)NC(=O)[C@H](C)NC(=O)[C@@H](NC(=O)[C@H](Cc1ccccc1)NC(=O)CNC(=O)[C@H](CC(C)C)NC(=O)CNC(=O)[C@@H](NC(=O)[C@H](CCCCN)NC(=O)CNC(=O)[C@H](CC(C)C)NC(=O)[C@H](CC(N)=O)NC(=O)[C@H](CCCCN)NC(=O)[C@H](CC(C)C)NC(=O)[C@@H](NC(=O)[C@H](CO)NC(=O)[C@H](CC(C)C)NC(=O)[C@H](CCSC)NC(=O)[C@@H](N)CO)C(C)C)C(C)C)C(C)C)C(=O)N[C@@H](CC(N)=O)C(=O)N[C@@H](CCCCN)C(=O)N[C@@H](CCCCN)C(=O)N[C@@H](CS)C(=O)O` [SMLSVLKNLGKVGLGFVACKINKKC], the MIC came to 40 µM (≈ 106 µg/mL) in experiment [2], 10 µM (≈ 26.5 µg/mL) in experiment [3] and 40 µM (≈ 106 µg/mL) in [4].

As for `CC[C@H](C)[C@H](NC(=O)[C@H](CCCCN)NC(=O)[C@H](CS)NC(=O)[C@H](CCCCN)NC(=O)[C@@H](NC(=O)[C@H](Cc1ccccc1)NC(=O)CNC(=O)[C@H](CC(C)C)NC(=O)CNC(=O)[C@@H](NC(=O)[C@H](CCCCN)NC(=O)CNC(=O)[C@H](CC(C)C)NC(=O)[C@H](CC(N)=O)NC(=O)[C@H](CCCCN)NC(=O)[C@H](CC(C)C)NC(=O)[C@@H](NC(=O)[C@H](CO)NC(=O)[C@H](CC(C)C)NC(=O)[C@H](CCSC)NC(=O)[C@@H](N)CO)C(C)C)C(C)C)C(C)C)C(=O)N[C@@H](CC(N)=O)C(=O)N[C@@H](CCCCN)C(=O)N[C@@H](CCC(N)=O)C(=O)N[C@@H](CS)C(=O)O` [SMLSVLKNLGKVGLGFVKCKINKQC], the MIC in experiment [2] is 20 µM (≈ 54.2 µg/mL); in [3], 10 µM (≈ 27.1 µg/mL); in [4], 20 µM (≈ 54.2 µg/mL).

In the case of `CC[C@H](C)[C@H](NC(=O)[C@H](C)NC(=O)[C@H](CS)NC(=O)[C@H](Cc1ccc(O)cc1)NC(=O)[C@@H](NC(=O)[C@H](CO)NC(=O)[C@@H]1CCCN1C(=O)[C@@H](NC(=O)[C@@H](NC(=O)[C@H](CCCCN)NC(=O)[C@H](CO)NC(=O)[C@H](C)NC(=O)[C@@H](NC(=O)[C@H](CCCCN)NC(=O)CNC(=O)[C@@H](NC(=O)[C@@H](NC(=O)[C@@H](N)CO)C(C)C)[C@@H](C)CC)[C@@H](C)CC)C(C)C)C(C)C)C(C)C)C(=O)N[C@@H](CO)C(=O)N[C@@H](CCCCN)C(=O)O` [SVIGKIASKVVPSVYCAISK], the results for the minimal inhibitory concentration (MIC) in experiment [7] and in experiment [3] were at least 125 µM and above 125 µM, respectively.
